Data published in PMC12250302, “Synthesis, Antimicrobial Activities, and Model of Action of Novel Tetralone Derivatives Containing Aminoguanidinium Moiety” (International Journal of Molecular Sciences, 2025).
Values after ≈ are worked out from the molar mass of the structure shown.

Columns and labels:
S. aureus ATCC 29213 = test: MIC and MBC testing, broth microdilution; type: cell-based, Staphylococcus aureus; conditions: Staphylococcus aureus, ATCC29213, S. aureus ATCC 29213; for MIC: 18 h, read-out: MIC; for MBC: read-out: MBC
Procedure, shortened: (§1)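 Two-fold serial dilutions of compounds (DMSO stocks) in MH broth, inoculated with log-phase bacteria at 1 × 10^6 CFU/mL and incubated 18 h at 37 °C. MIC is the lowest concentration with no visible growth; triplicates. Levofloxacin positive, 0.1% DMSO negative control.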

E. coli ATCC 25922 = test: MIC and MBC testing, broth microdilution; type: cell-based, Escherichia coli; conditions: Escherichia coli; for MIC: ATCC25922, 18 h, read-out: MIC; for MBC: ATCC25922, read-out: MBC
Procedure, shortened: as §1

E. faecium ATCC 35667 = test: MIC and MBC testing, broth microdilution; type: cell-based, Enterococcus faecium; conditions: Enterococcus faecium, ATCC35667, E. faecium ATCC 35667; for MIC: 18 h, read-out: MIC; for MBC: read-out: MBC
Procedure, shortened: as §1

MRSA = test: MIC testing, summary over MRSA strains; type: cell-based; conditions: Staphylococcus aureus; against MRSA
Description: (§2) The minimum inhibitory concentration (MIC) of all synthesized compounds was tested by the broth microdilution method. In brief, compounds dissolved in DMSO were diluted twice continuously in a 96-well plate with MH broth. The ESKAPE pathogens (E. coli ATCC 25922, S. aureus ATCC 29213, K. pneumoniae ATCC 700603, A. baumannii ATCC 19606, P. aeruginosa ATCC 27853, and E. faecium ATCC 35667), clinical S. aureus isolates (LMY45, LMY46, LMY47, and LMY48) and methicillin-resistant Staphylococcus aureus (MRSA-1 and MRSA-2) were cultured in MH broth to logarithmic growth phase and then diluted to 1 × 10^6 CFU/mL in MH broth. Subsequently, the diluted bacterial solution was mixed with the diluted compound solution in a 96-well plate and incubated at 37 °C for a duration of 18 h. The MIC of the compounds was recorded as the lowest concentration at which no visible growth was observed. […] Each concentration was replicated thrice.

P. aeruginosa ATCC 27853 = test: MIC and MBC testing, broth microdilution; type: cell-based, Pseudomonas aeruginosa; conditions: Pseudomonas aeruginosa; for MIC: ATCC27853, 18 h, read-out: MIC; for MBC: ATCC27853, read-out: MBC
Procedure, shortened: as §1

[1] = tested on: clinical S. aureus isolate LMY47; test: MIC and MBC testing, broth microdilution; type: cell-based, Staphylococcus aureus; conditions: Staphylococcus aureus, LMY47; for MIC: 18 h, read-out: MIC; for MBC: read-out: MBC
Procedure, shortened: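 Broth microdilution in MH broth: 2-fold compound dilutions from DMSO stocks, log-phase clinical S. aureus isolates or MRSA-1 at 1 × 10^6 CFU/mL, 18 h at 37 °C, each concentration in triplicate. MIC recorded; MBC also determined.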

[2] = tested on: clinical S. aureus isolate LMY48; test: MIC and MBC testing, broth microdilution; type: cell-based, Staphylococcus aureus; conditions: Staphylococcus aureus, LMY48; for MIC: 18 h, read-out: MIC; for MBC: read-out: MBC
Procedure, shortened: (§3)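 Compounds in DMSO were serially two-fold diluted in MH broth and mixed with log-phase bacteria diluted to 1 × 10^6 CFU/mL in MH broth, then incubated 18 h at 37 °C. MBC values were also determined. Each concentration was tested in triplicate.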

MRSA-2 = test: MIC and MBC testing, broth microdilution; type: cell-based, Staphylococcus aureus; conditions: Staphylococcus aureus, MRSA-2; for MIC: 18 h, read-out: MIC; for MBC: read-out: MBC
Procedure, shortened: as §3

[3] = tested on: clinical S. aureus isolate LMY46; test: MIC and MBC testing, broth microdilution; type: cell-based, Staphylococcus aureus; conditions: Staphylococcus aureus, LMY46; for MIC: 18 h, read-out: MIC; for MBC: read-out: MBC
Procedure, shortened: as §3

[4] = tested on: clinical S. aureus isolate LMY45; test: MIC and MBC testing, broth microdilution; type: cell-based, Staphylococcus aureus; conditions: Staphylococcus aureus, LMY45; for MIC: 18 h, read-out: MIC; for MBC: read-out: MBC
Procedure, shortened: as §3

MRSA-1 = test: MIC and MBC testing, broth microdilution; type: cell-based, Staphylococcus aureus; conditions: Staphylococcus aureus, MRSA-1; for MIC: 18 h, read-out: MIC; for MBC: read-out: MBC
Procedure, shortened: as §3

[5] = tested on: S. aureus, including MRSA; test: MIC testing, summary over S. aureus strains; type: cell-based; conditions: Staphylococcus aureus
Description: as §2

[6] = tested on: K. pneumoniae ATCC 700603; test: MIC and MBC testing, broth microdilution; type: cell-based, Klebsiella pneumoniae; conditions: Klebsiella pneumoniae; for MIC: ATCC700603, 18 h, read-out: MIC; for MBC: ATCC700603, read-out: MBC
Procedure, shortened: as §1

A. baumannii ATCC 19606 = test: MIC and MBC testing, broth microdilution; type: cell-based, Acinetobacter baumannii; conditions: Acinetobacter baumannii; for MIC: ATCC19606, 18 h, read-out: MIC; for MBC: ATCC19606, read-out: MBC
Procedure, shortened: as §1

| SMILES | MIC (S. aureus ATCC 29213) [µg/mL] | MBC (S. aureus ATCC 29213) [µg/mL] | MIC (E. coli ATCC 25922) [µg/mL] | MIC (E. faecium ATCC 35667) [µg/mL] | MBC (E. faecium ATCC 35667) [µg/mL] | MIC (P. aeruginosa ATCC 27853) [µg/mL] | MIC [1] [µg/mL] | MBC [1] [µg/mL] | MIC [2] [µg/mL] | MBC [2] [µg/mL] | MIC (MRSA-2) [µg/mL] | MBC (MRSA-2) [µg/mL] | MIC [3] [µg/mL] | MBC [3] [µg/mL] | MIC [4] [µg/mL] | MBC [4] [µg/mL] | MIC (MRSA-1) [µg/mL] | MBC (MRSA-1) [µg/mL] | MIC [6] [µg/mL] | MIC (A. baumannii ATCC 19606) [µg/mL] | also measured |
| --- | --- | --- | --- | --- | --- | --- | --- | --- | --- | --- | --- | --- | --- | --- | --- | --- | --- | --- | --- | --- | --- |
| [H]/N=C(\N)NN=C1CCCc2cc(OCC=C(C)C)ccc21 [Compound 2I, (E)-2-(6-((3-methylbut-2-en-1-yl)oxy)-3,4-dihydronaphthalen-1(2H)-ylidene)hydrazine-1-carboximidamide] | 4 (≈ 14 µM) | 32 (≈ 112 µM) | 16 (≈ 55.9 µM) | 8 (≈ 27.9 µM) | 32 (≈ 112 µM) | 32 (≈ 112 µM) | 2 (≈ 6.98 µM) | 8 (≈ 27.9 µM) | 1 (≈ 3.49 µM) | 2 (≈ 6.98 µM) | 1 (≈ 3.49 µM) | 2 (≈ 6.98 µM) | 2 (≈ 6.98 µM) | 2 (≈ 6.98 µM) | 2 (≈ 6.98 µM) | 4 (≈ 14 µM) | 2 (≈ 6.98 µM) | 16 (≈ 55.9 µM) | 32 (≈ 112 µM) | 16 (≈ 55.9 µM) | MBC (E. coli ATCC 25922): 32 µg/mL (≈ 112 µM); MIC (MRSA): 1 to 2 µg/mL (≈ 3.49 to 6.98 µM); MBC (P. aeruginosa ATCC 27853): 32 µg/mL (≈ 112 µM); MIC [5]: 0.5 to 4 µg/mL (≈ 1.75 to 14 µM); MBC [6]: > 32 µg/mL; MBC (A. baumannii ATCC 19606): 32 µg/mL (≈ 112 µM) |
| [H]/N=C(\N)NN=C1CCCc2cc(OCCCCCCCCC)ccc21 [Compound 2F, (E)-2-(6-(nonyloxy)-3,4-dihydronaphthalen-1(2H)-ylidene)hydrazine-1-carboximidamide] | 2 (≈ 5.81 µM) | 8 (≈ 23.2 µM) | > 32 | 2 (≈ 5.81 µM) | 4 (≈ 11.6 µM) | > 32 | 2 (≈ 5.81 µM) | 8 (≈ 23.2 µM) | 1 (≈ 2.9 µM) | 2 (≈ 5.81 µM) | 1 (≈ 2.9 µM) | 2 (≈ 5.81 µM) | 2 (≈ 5.81 µM) | 4 (≈ 11.6 µM) | 2 (≈ 5.81 µM) | 4 (≈ 11.6 µM) | 2 (≈ 5.81 µM) | 2 (≈ 5.81 µM) | > 32 | > 32 | – |
| [H]/N=C(\N)NN=C1CCCc2cc(OCc3cc(F)cc(F)c3)ccc21 [Compound 1G, (E)-2-(6-((3,5-difluorobenzyl)oxy)-3,4-dihydronaphthalen-1(2H)-ylidene)hydrazine-1-carboximidamide] | 2 (≈ 5.81 µM) | 8 (≈ 23.2 µM) | 8 (≈ 23.2 µM) | 4 (≈ 11.6 µM) | 8 (≈ 23.2 µM) | 32 (≈ 92.9 µM) | 2 (≈ 5.81 µM) | 8 (≈ 23.2 µM) | 2 (≈ 5.81 µM) | 2 (≈ 5.81 µM) | 2 (≈ 5.81 µM) | 16 (≈ 46.5 µM) | 2 (≈ 5.81 µM) | 8 (≈ 23.2 µM) | 2 (≈ 5.81 µM) | 4 (≈ 11.6 µM) | 2 (≈ 5.81 µM) | 16 (≈ 46.5 µM) | 16 (≈ 46.5 µM) | 8 (≈ 23.2 µM) | MBC (E. coli ATCC 25922): 16 µg/mL (≈ 46.5 µM); MBC [6]: 16 µg/mL (≈ 46.5 µM); MBC (A. baumannii ATCC 19606): 8 µg/mL (≈ 23.2 µM) |
| [H]/N=C(\N)NN=C1CCCc2cc(OCc3ccc(C(F)(F)F)cc3)ccc21 [Compound 1J, (E)-2-(6-((4-(trifluoromethyl)benzyl)oxy)-3,4-dihydronaphthalen-1(2H)-ylidene)hydrazine-1-carboximidamide] | 2 (≈ 5.31 µM) | 16 (≈ 42.5 µM) | 4 (≈ 10.6 µM) | 2 (≈ 5.31 µM) | 4 (≈ 10.6 µM) | 16 (≈ 42.5 µM) | 2 (≈ 5.31 µM) | 4 (≈ 10.6 µM) | 2 (≈ 5.31 µM) | 2 (≈ 5.31 µM) | 2 (≈ 5.31 µM) | 32 (≈ 85 µM) | 2 (≈ 5.31 µM) | 16 (≈ 42.5 µM) | 2 (≈ 5.31 µM) | 2 (≈ 5.31 µM) | 1 (≈ 2.66 µM) | 8 (≈ 21.3 µM) | 16 (≈ 42.5 µM) | 8 (≈ 21.3 µM) | MBC (E. coli ATCC 25922): 4 µg/mL (≈ 10.6 µM); MBC (P. aeruginosa ATCC 27853): > 32 µg/mL; MBC [6]: 32 µg/mL (≈ 85 µM); MBC (A. baumannii ATCC 19606): 8 µg/mL (≈ 21.3 µM) |
